Tests used:
[1] = test system: Hct116; test: XTT assay for anti-proliferative effect; format: cell-based; conditions: Homo sapiens, HCT-116; Hct116 tumour cell line, ~48 h incubation
Description: The principle of this test is based on the intracellular reduction of the tetrazolium dye XTT (sodium 3′-[1-(phenylaminocarbonyl)-3,4-tetrazolium]-bis(4-methoxy-6-nitro)benzene sulfonic acid, Sigma) to a formazan dye by mitochondrial dehydrogenases. The dye is only formed by metabolically active cells and its photometrically measurable intensity is a quantitative indicator for the presence of living cells. The reduction of dye formation by incubation of the cells with substances serves as a parameter for the anti-proliferative effect.
The tumour cell lines (ATCC) were injected into 96-well microtitre plates in a defined cell number (1250 cells/well for Hct116) and then incubated overnight in an incubator at 37° C., 5% CO2 and 95% air humidity. The test substances were prepared as stock solutions (10 mM) in DMSO. To determine the EC50 values the potential inhibitor substances were added to the cells in half-logarithmically graded dilutions, resulting in final concentrations of 1.58 nM-50 μM. The cell plates were then incubated for ˜48 h in an incubator at 37° C., 5% CO2 and 95% air humidity.
For the detection reaction the substrate XTT was mixed with PMS (N-Methyl dibenzopyrazine methylsulfate, Sigma) and added to the cells so that a final concentration of 325 μg XTT/ml and 2.5 μg PMS/ml was obtained. It was then incubated for 3 h at 37° C., 95% air humidity. The formazan salt formed by the cellular dehydrogenases could then be quantified by adsorption at 490 nm.
The % inhibition value was evaluated by means of the following formula from the values for the optical densities measured in each case at 490 nm:
Eight determinations were made for each control and two for the substance samples. The 0% control contains no cells, the 100% control (proliferation control) contains no test substance. The EC50 values were determined using GraphPadPrism.

[2] = molecular target: Erk2 (Homo sapiens, UniProt P28482); test: Erk2 alpha kinase assay (cell-free, ALPHA technology); format: biochemical; conditions: 10 μM ATP
Chain of Erk2 (P28482 2-360 limits assumed): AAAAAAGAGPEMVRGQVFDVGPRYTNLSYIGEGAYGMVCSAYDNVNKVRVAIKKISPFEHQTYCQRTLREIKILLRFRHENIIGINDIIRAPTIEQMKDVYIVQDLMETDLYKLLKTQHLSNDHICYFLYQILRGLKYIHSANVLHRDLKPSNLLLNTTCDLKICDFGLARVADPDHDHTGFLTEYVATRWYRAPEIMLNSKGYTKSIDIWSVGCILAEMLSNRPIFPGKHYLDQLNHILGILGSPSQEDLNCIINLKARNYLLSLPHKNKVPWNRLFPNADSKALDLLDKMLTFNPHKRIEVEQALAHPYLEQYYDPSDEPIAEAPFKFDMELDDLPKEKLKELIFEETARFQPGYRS
Description: The inhibitory effect of the compounds according to the invention was tested on various serine/threonine, tyrosine and lipid kinases in enzymatic assays. Recombinant human kinases such as, for example, Erk2, were used in this case, partly as full-length kinases, partly as shortened fragments, but at least consisting of the functional kinase domains. The commercial kinase proteins (Proqinase, Upstate) were used as recombinant fusion proteins with GST (glutathion-S-transferase) or His-Tag. Depending on the type of substrate, the various kinase reactions were quantified by means of suitable ALPHA™ beads (Perkin-Elmer). The substance testing is described in detail hereinafter for the Erk assay. […] a) MAPK-ALPHAs (e.g. […] The fluorescence was detected the following morning in a Envision plate reader (Perkin-Elmer). The %-inhibition values per substance concentration were calculated by means of the following formula from the raw data determined in the Envision plate reader[…]: Eight determinations were made for each control and two for the substance samples. […] The IC50 values were determined using GraphPadPrism.

Question: What does the source list for `CC(CCCc1ccccc1)NC(=O)Nc1ccc2ncc(-c3cnn(C)c3)nc2n1` (centres unmarked) [Compound 164, 1-(1-Methyl-4-phenyl-butyl)-3-[3-(1-methyl-1H-pyrazol-4-yl)-pyrido[2,3-b]pyrazin-6-yl]-urea]?
Answer: EC50 [1]: 557 nM; IC50 [2]: 2 nM; melting point: 204 to 208 °C

Question: For `O=C(NCCCCc1ccccc1)Nc1ccc2ncc(-c3ccc(O)cc3)nc2n1` [Compound 160, 1-[3-(4-Hydroxy-phenyl)-pyrido[2,3-b]pyrazin-6-yl]-3-(4-phenyl-butyl)-urea], which EC50 [1] is on record?
Answer: The EC50 was 420 nM.

Question: What about the IC50 [2] of the same molecule?
Answer: The IC50 was 1 nM.

Question: What about the melting point of the same molecule?
Answer: Its melting point is 233 to 235 °C.

Question: For `COc1c(CO)cccc1-c1cnc2ccc(NC(=O)N[C@H](C)CCCc3ccccc3)nc2n1` [Compound 158, 1-[3-(3-Hydroxymethyl-2-methoxy-phenyl)-pyrido[2,3-b]pyrazin-6-yl]-3-((R)-1-methyl-4-phenyl-butyl)-urea], which IC50 [2] is on record?
Answer: Its IC50 is 1 nM.

Question: What about the melting point of the same molecule?
Answer: The melting point was 168 to 170 °C.

Question: Which IC50 [2] does the source give for `O=C(NCCCCc1ccccc1)Nc1ccc2ncc(N3CCCC3)nc2n1` [Compound 172, 1-(4-Phenyl-butyl)-3-(3-pyrrolidin-1-yl-pyrido[2,3-b]pyrazin-6-yl)-urea] here?
Answer: Its IC50 is 5 nM.

Question: And the melting point?
Answer: Its melting point is 204 to 206 °C.

Question: For `COc1ccc(-c2cnc3ccc(NC(=O)NCCCCc4ccccc4)nc3n2)cc1OC` [Compound 178, 1-[3-(3,4-Dimethoxy-phenyl)-pyrido[2,3-b]pyrazin-6-yl]-3-(4-phenyl-butyl)-urea], which IC50 [2] is on record?
Answer: Its IC50 is 6 nM.

Question: And the melting point?
Answer: The melting point was 210 to 211 °C.

Question: With `C[C@H](CCCc1ccccc1)NC(=O)Nc1ccc2ncc(-c3ccc(CO)cc3)nc2n1` [Compound 167, 1-[3-(4-Hydroxymethyl-phenyl)-pyrido[2,3-b]pyrazin-6-yl]-3-((R)-1-methyl-4-phenyl-butyl)-urea] as the molecule, how does the IC50 [2] read?
Answer: The IC50 was 3 nM.

Question: And the melting point?
Answer: The melting point was 187 to 190 °C.

Question: Which IC50 [2] does the source give for `N[C@@H](Cc1ccc(-c2cnc3ccc(NC(=O)NCCCCc4ccccc4)nc3n2)cc1)C(=O)O` [Compound 197, (S)-2-Amino-3-(4-{6-[3-(4-phenyl-butyl)-ureido]-pyrido[2,3-b]pyrazin-3-yl}-phenyl)-propionic acid] here?
Answer: The IC50 was 5 nM.

Question: And the melting point?
Answer: Its melting point is 230 to 232 °C.

Question: Which IC50 [2] does the source give for `COc1cc(CO)ccc1-c1cnc2ccc(NC(=O)N[C@H](C)CCCc3ccccc3)nc2n1` [Compound 156, 1-[3-(4-Hydroxymethyl-2-methoxy-phenyl)-pyrido[2,3-b]pyrazin-6-yl]-3-((R)-1-methyl-4-phenyl-butyl)-urea] here?
Answer: Its IC50 is 1 nM.

Question: And the melting point?
Answer: The melting point was 168 to 170 °C.

Question: For `Cc1n[nH]c(C)c1-c1cnc2ccc(NC(=O)N[C@H](C)CCCc3ccccc3)nc2n1` [Compound 177, 1-[3-(3,5-Dimethyl-1H-pyrazol-4-yl)-pyrido[2,3-b]pyrazin-6-yl]-3-((R)-1-methyl-4-phenyl-butyl)-urea], which IC50 [2] is on record?
Answer: Its IC50 is 6 nM.

Question: And the melting point?
Answer: The melting point was 266 to 269 °C.

Question: For `O=C(NCCCCc1ccccc1)Nc1ccc2ncc(-c3ccc(OCCOCCO)cc3)nc2n1` [Compound 201, 1-(3-{4-[2-(2-Hydroxy-ethoxy)-ethoxy]-phenyl}-pyrido[2,3-b]pyrazin-6-yl)-3-(4-phenyl-butyl)-urea], which EC50 [1] is on record?
Answer: The EC50 was 888 nM.

Question: And the IC50 [2]?
Answer: Its IC50 is 39 nM.

Question: What about the melting point of the same molecule?
Answer: Its melting point is 192 to 194 °C.

Question: Which results are given for `O=C(NCCCCc1ccccc1)Nc1ccc2ncc(N3CCOCC3)nc2n1` [Compound 176, 1-(3-Morpholin-4-yl-pyrido[2,3-b]pyrazin-6-yl)-3-(4-phenyl-butyl)-urea]?
Answer: IC50 [2]: 6 nM; melting point: 200 to 202 °C

Question: Which EC50 [1] does the source give for `C[C@H](CCCc1ccccc1)NC(=O)Nc1ccc2ncc(-c3cnn(CCN4CCOCC4)c3)nc2n1` [Compound 168, 1-((R)-1-Methyl-4-phenyl-butyl)-3-{3-[1-(2-morpholin-4-yl-ethyl)-1H-pyrazol-4-yl]-pyrido[2,3-b]pyrazin-6-yl}-urea] here?
Answer: The EC50 was 903 nM.

Question: And the IC50 [2]?
Answer: Its IC50 is 3 nM.

Question: Which IC50 [2] does the source give for `O=C(NCCCCc1ccccc1)Nc1ccc2ncc(-c3cccc(C(=O)O)c3)nc2n1` [Compound 198, 3-{6-[3-(4-Phenyl-butyl)-ureido]-pyrido[2,3-b]pyrazin-3-yl}-benzoic acid] here?
Answer: The IC50 was 3 nM.

Question: What about the melting point of the same molecule?
Answer: The melting point was 254 to 256 °C.

Question: For `Cn1cc(-c2cnc3ccc(NC(=O)NCCCCc4ccccc4)nc3n2)cn1` [Compound 155, 1-[3-(1-Methyl-1H-pyrazol-4-yl)-pyrido[2,3-b]pyrazin-6-yl]-3-(4-phenyl-butyl)-urea], which EC50 [1] is on record?
Answer: Its EC50 is 337 nM.

Question: And the IC50 [2]?
Answer: Its IC50 is 4 nM.

Question: And the melting point?
Answer: The melting point was 198 to 201 °C.

Question: Which IC50 [2] does the source give for `COc1ncccc1-c1cnc2ccc(NC(=O)N[C@H](C)CCCc3ccccc3)nc2n1` [Compound 161, 1-[3-(2-Methoxy-pyridin-3-yl)-pyrido[2,3-b]pyrazin-6-yl]-3-((R)-1-methyl-4-phenyl-butyl)-urea] here?
Answer: Its IC50 is 2 nM.

Question: And the melting point?
Answer: Its melting point is 161 to 163 °C.

Question: Which IC50 [2] does the source give for `C[C@H](CCCc1ccccc1)NC(=O)Nc1ccc2ncc(N3CCOCC3)nc2n1` [Compound 166, 1-((R)-1-Methyl-4-phenyl-butyl)-3-(3-morpholin-4-yl-pyrido[2,3-b]pyrazin-6-yl)-urea] here?
Answer: Its IC50 is 3 nM.

Question: And the melting point?
Answer: The melting point was 201 to 203 °C.

Question: For `Cn1cc(-c2cnc3ccc(NC(=O)NCCCC(C)(C)c4ccccc4)nc3n2)cn1` [Compound 169, 1-(4-Methyl-4-phenyl-pentyl)-3-[3-(1-methyl-1H-pyrazol-4-yl)-pyrido[2,3-b]pyrazin-6-yl]-urea], which EC50 [1] is on record?
Answer: The EC50 was 563 nM.

Question: And the IC50 [2]?
Answer: Its IC50 is 3 nM.

Question: And the melting point?
Answer: Its melting point is 208 to 210 °C.

Question: With `CCCn1cc(-c2cnc3ccc(NC(=O)N[C@H](C)CCCc4ccccc4)nc3n2)cn1` [Compound 170, 1-((R)-1-Methyl-4-phenyl-butyl)-3-[3-(1-propyl-1H-pyrazol-4-yl)-pyrido[2,3-b]pyrazin-6-yl]-urea] as the molecule, how does the EC50 [1] read?
Answer: Its EC50 is 149 nM.

Question: And the IC50 [2]?
Answer: Its IC50 is 4 nM.

Question: And the melting point?
Answer: The melting point was 185 to 188 °C.

Question: What does the source list for `O=C(NCCCCc1ccccc1)Nc1ccc2ncc(-c3cn[nH]c3)nc2n1` [Compound 159, 1-(4-Phenyl-butyl)-3-[3-(1H-pyrazol-4-yl)-pyrido[2,3-b]pyrazin-6-yl]-urea]?
Answer: EC50 [1]: 844 nM; IC50 [2]: 1 nM; melting point: 231 to 232 °C

Question: For `O=C(NCCCCc1ccccc1)Nc1ccc2ncc(-c3ccc(OP(=O)(O)O)cc3)nc2n1` [Compound 165, Phosphoric acid mono-(4-{6-[3-(4-phenyl-butyl)-ureido]-pyrido[2,3-b]pyrazin-3-yl}-phenyl) ester], which EC50 [1] is on record?
Answer: The EC50 was 3190 nM.

Question: And the IC50 [2]?
Answer: The IC50 was 3 nM.

Question: What about the melting point of the same molecule?
Answer: The melting point was 202 °C.

Question: Which IC50 [2] does the source give for `CCn1cc(-c2cnc3ccc(NC(=O)NCCCCc4ccccc4)nc3n2)cn1` [Compound 108, 1-[3-(1-Ethyl-1H-pyrazol-4-yl)-pyrido[2,3-b]pyrazin-6-yl]-3-(4-phenyl-butyl)-urea] here?
Answer: Its IC50 is 4 nM.

Question: And the melting point?
Answer: The melting point was 207 to 208 °C.

Source: patent US8791118B2, “Pyridopyrazines as highly selective ras-Raf-Mek-Erk signal transduction pathway inhibitors” (Aeterna Zentaris GmbH, priority 2011, dated 2014)
